# Results published in article PMC12758328 (Virulence, 2025).
# What was measured:
# SpyGapDH = target: T1, SpyGapDH (Streptococcus pyogenes, UniProt P0C0G7); test: NADH formation at […] nm; type: biochemical; conditions: 10 mM NAD+, 10 mM phosphate, 200 mM Tricine pH 8.5
# T1 sequence (P0C0G7 2-336): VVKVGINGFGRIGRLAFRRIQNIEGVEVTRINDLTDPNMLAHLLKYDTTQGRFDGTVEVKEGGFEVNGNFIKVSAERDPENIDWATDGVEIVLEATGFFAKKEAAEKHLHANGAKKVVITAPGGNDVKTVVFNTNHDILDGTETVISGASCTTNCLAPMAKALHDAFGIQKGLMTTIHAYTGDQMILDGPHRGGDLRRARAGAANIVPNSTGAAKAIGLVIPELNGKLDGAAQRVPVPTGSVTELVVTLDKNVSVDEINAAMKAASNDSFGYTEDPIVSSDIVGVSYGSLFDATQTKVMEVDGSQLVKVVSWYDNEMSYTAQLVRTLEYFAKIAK
# SpyGapN = target: T2, SpyGapN (Streptococcus pyogenes, UniProt Q99Z67); test: NADPH formation at […] nm; type: biochemical; conditions: for inhibition at 40000 µM: read-out: % inhibition at 40 mM
# T2 sequence (Q99Z67 1-475): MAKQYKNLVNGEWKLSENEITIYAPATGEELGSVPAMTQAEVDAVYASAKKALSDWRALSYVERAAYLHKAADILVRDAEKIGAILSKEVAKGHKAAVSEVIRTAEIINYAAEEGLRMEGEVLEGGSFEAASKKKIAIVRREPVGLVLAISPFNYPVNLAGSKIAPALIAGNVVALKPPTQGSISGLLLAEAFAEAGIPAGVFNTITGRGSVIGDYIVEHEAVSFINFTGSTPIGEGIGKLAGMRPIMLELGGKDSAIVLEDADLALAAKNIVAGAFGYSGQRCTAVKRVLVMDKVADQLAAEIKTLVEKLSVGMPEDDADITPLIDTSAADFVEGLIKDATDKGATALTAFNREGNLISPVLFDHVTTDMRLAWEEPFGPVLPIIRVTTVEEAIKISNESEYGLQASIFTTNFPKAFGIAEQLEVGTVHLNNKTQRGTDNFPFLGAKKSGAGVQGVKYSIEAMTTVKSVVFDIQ
compound,measurement,setting,value
O=CC(O)COP(=O)(O)O (racemic) [DL-glyceraldehyde 3-phosphate],NADH formation at 340 nm,SpyGapDH,"To measure the GapDH activity, the assay mixture contained"
"Nc1cncnc1 [R65, Pyrimidine-5-amine]",inhibition at 40000 µM,SpyGapN,~42%
"Oc1ccnnc1 [R76, 4-Hydroxypyridazine]",inhibition at 40000 µM,SpyGapN,~16%
"O=S(=O)(O)C(O)C(O)S(=O)(=O)O (centres unmarked) [compound 26, 1,2-dihydroxyethane-1,2-disulfonate]",inhibition at 8000 µM,SpyGapN; read-out: % inhibition at 8 mM,~50%
(ethoxyoxydophosphanyl)formate [compound 32],% inhibition at 8 mM,"SpyGapN; 2 mM DL-G3P, 10 mM NADP+, 200 mM Tricine pH 8.5",~ 25%
